# Assay results from patent publication US20120134979A1, “METHODS AND COMPOSITIONS FOR THE TREATMENT OF SICKLE CELL DISEASE” (priority 2010, published 2012).
# Key:
# normal human RBCs = experiment: 2,3-DPG levels in primary cultured normal human RBCs; format: cell-based; details: for NECA-mediated 2,3-DPG induction (effect of antagonist): RBCs from normal individuals, 10 μM NECA, antagonists at 10 μM; for 2,3-DPG levels / production (agonist): primary cultured human RBCs from normal individuals, normoxic
# Procedure: (§1) Isolation of total erythrocytes and treatment of human and mouse erythrocytes in vitro. Blood collected with heparin as an anti-coagulant was centrifuged at 240×g for 10 min at room temperature, followed by aspiration of plasma and white interface. Packed red blood cells (RBCs) were washed 3 times with culture media (F-10 Ham's with 1% penicillin/streptomycin, 10% fetal bovine serum (FBS), and re-suspended to 4% hematocrit (HCT). One ml of RBCs was added to each well of a 12-well plate. Normal RBCs purified from humans were treated with different concentrations of 5′-(N-ethyl-carboxamido) adenosine (NECA, an adenosine receptor agonist, Sigma-Aldrich, St. Louis, Mo.) ranging from 1-50 μM for different time points (from 1 to 18 hr) under normoxic conditions. Normal RBCs were treated with 10 μM NECA in the presence or absence of adenosine receptor antagonists, including theophylline, PSB36, SCH442416, MRS1754 and MRS3777 (Tocris Bioscience, St. Louis, Mo.) at 10 μM. In addition, normal RBCs were treated directly with the A2BR agonist (BAY 60-6583, Bayer HealthCare AG, Wuppertal, Germany) or the A2AR agonist (CGS21680) (Tocris). Similarly, the mouse RBCs were treated with or without NECA at 10 μM in the presence or absence of theophylline (10 μM). In addition, RBCs purified from 4 adenosine receptor deficient mice were treated with 10 μM NECA. After 18 hours, cells were collected and 2,3-DPG levels were measured as described below. RBCs were purified from SCD patients and treated with or without 10 μM NECA, 5 units/ml polyethylene glycol-adenosine deaminase (PEG-ADA) or 3 mmol/L glycolic acid (Sigma-Aldrich), 10 μM MRS1754 (A2BR antagonist) under ambient oxygen (normoxia) or different levels of hypoxic conditions (for 3 hours with shaking at 37° C. At the end of experiments, 2,3-DPG levels were measured and the percentage of sickled cells determined as described below.
# (§2) 2,3-DPG analysis. 2,3-DPG concentration in RBCs was detected by a commercially available kit (Roche, Nutley, N.J., and as described in Ericson A, de Verdier C H. A modified method for the determination of 2,3-diphosphoglycerate in erythrocytes. Scandinavian journal of clinical and laboratory investigation. 1972; 29(1):84-90).
# normal mouse RBCs = experiment: 2,3-DPG levels in isolated mouse RBCs treated in vitro; format: cell-based; details: for NECA-mediated 2,3-DPG induction (effect of inhibitor): normal mouse RBCs
# Procedure: as §1, §2
# RBCs from SCD patients [1] = experiment: Hypoxia-induced 2,3-DPG in erythrocytes purified from SCD patients; format: cell-based, human; details: hypoxic conditions (2% oxygen)
# Procedure: as §1, §2
# RBCs from SCD patients [2] = experiment: Hypoxia-induced sickling of RBCs from SCD patients; format: cell-based, human; details: RBCs from individuals with SCD, hypoxic conditions
# Procedure: as §1
# (§3) Morphological study of erythrocytes and quantification of reticulocytes by flow cytometry. Blood smears were stained using the WG16-500 ml kit (Sigma-Aldrich) for sickled cells and observed using 100× oil immersion objective of Olympus BX60 microscope. […] The percentages of sickled cells among the counted cells were calculated. Reticulocyte was labeled by Retic-COUNT Reagent (Becton Dickinson) and quantified by flow cytometry (Perumbeti, et al., A novel human gamma-globin gene vector for genetic correction of sickle cell anemia in a humanized sickle mouse model: critical determinants for successful correction. Blood. 2009; 114(6):1174-1185).
# SCD Tg mice [3] = experiment: Hematological parameters of SCD Tg mice treated with PEG-ADA or PSB1115 for 8 weeks; format: in vivo, mouse; details: 8 weeks treatment
# Excerpt: Mice. Berkley sickle cell disease transgenic mice (SCD Tg mice), expressing exclusively human sickle hemoglobin (HbS) were purchased from The Jackson Laboratory Inc (Paszty, C. Transgenic and gene knock-out mouse models of sickle cell anemia and the thalassemias. Curr Opin Hematol 4, 88-93, 1997). C57BL/6 mice used as controls were purchased from Harlan Laboratories. Adenosine receptor deficient mice were obtained from the following sources: A1R-deficient mice (Jurgen Schnermann, NIDDK, NIH); A2AR-deficient mice (Jiang-Fan Chen, Boston University School of Medicine); A2BR-deficient mice (Michael R. Blackburn, University of Texas-Houston Medical School); and A3R-deficient mice (Marlene Jacobson, Merck Research Laboratories). All receptor deficient mice were backcrossed at least 10 generations onto the C57Blk/6J background and were genotyped according to established protocols (Sun, D., et al. Mediation of tubuloglomerular feedback by adenosine: evidence from mice lacking adenosine receptors. Proc Natl Acad Sci USA 98, 9983-9988, 2001; Nemeth, Z. H., et al. Adenosine receptor activation ameliorates type 1 diabetes. FASEB J, 2007; Chen, J. F., et al. A2A adenosine receptor deficiency attenuates brain injury induced by transient focal ischemia in mice. J Neurosci 19, 9192-9200, 1999; Salvatore, C. A., et al. Disruption of the A3 adenosine receptor gene in mice and its effect on stimulated inflammatory cells. The Journal of Biological Chemistry 275, 4429-4434, 2000). Animals were maintained in accordance with institutional and NIH guidelines under research protocols that were reviewed and approved by the University of Texas Health Science Center at Houston Animal Welfare Committee.
# (§4) Chronic PEG-ADA therapy. SCD transgenic mice, at eight weeks of age, were divided to two groups. One group was injected with 2.5 U PEG-ADA weekly for 8 weeks. This dosing protocol was designated SCD with PEG-ADA treatment regimen (SCD+PEG-ADA). Another group was injected with normal saline for 8 weeks; it was designated as SCD without PEG-ADA treatment regimen (SCD). Wild-type mice (C57Bl/6) used as control were injected with saline or PEG-ADA as with the SCD groups.
# (§5) Chronic treatment with A2BR antagonist, PSB1115. SCD transgenic mice or wild type mice (eight weeks of age) were divided to two groups, one groups was injected with 200 μg of PSB1115 (an A2B receptor antagonist: obtained from Tocris Bioscience, St. Louis, Mo.) in PBS, daily for 8 weeks. One of groups was injected with saline.
# as §3
# SCD Tg mice [4] = experiment: Life span of RBCs in SCD Tg mice (in vivo biotin labelling); design: species or system mouse
# Procedure: Measurement of life span of RBCs in SCD Tg mice. SCD Tg mice were treated with or without PEG ? ADA (2.5 unit/week) for 8 weeks. At 6 week-treatment, RBCs were labeled in vivo by using N-hydroxysuccinimide (NHS) biotin and the life span of circulating red blood cells was measured as described (Perumbeti, et al. A novel human gamma-globin gene vector for genetic correction of sickle cell anemia in a humanized sickle mouse model: critical determinants for successful correction. Blood. 2009; 114(6):1174-1185).
# Specifically, 50 mg/kg of NHS biotin was injected into the retro-orbital plexus of SCD Tg mice (prepared in 100 μl sterile saline just prior to injection; initially dissolved at 50 mg/ml in N,—N,-dimethylacetamide) Blood samples (only 5 μl) were collected after first day of biotin-injection from tail vein by venipuncture to determine the percentage of RBCs labeled with biotin. Subsequently, 5 μl of blood were obtained by tail vein every 3 days for measurement of biotinylated RBCs until the 10th day. The percentage of biotinylated RBCs was calculated by determining the fraction of peripheral blood cells labeled with Ter-119 (to identify RBCs) that were also labeled with a streptavidin-conjugated fluorochrome by flow cytometry.
# SCD Tg mice [5] = experiment: Organ weight, histology and heme content in SCD Tg mice after chronic treatment; format: in vivo, mouse; details: 8 weeks treatment, lung, liver, spleen (PSB1115 also kidney)
# Procedure: as §4, §5
# Mouse organ isolation and histological analysis. Mice were anesthetized and body weight was determined. Organs were isolated and weighed. Half of each organ was quickly frozen in liquid nitrogen and then stored at −80° C. for heme content measurements as described below. The remaining half of each organ was fixed with 4% paraformaldehyde in PBS overnight at 4° C. Fixed tissues were rinsed in PBS, dehydrated through graded ethanol washes, and embedded in paraffin. 5 μm sections were collected on slides and stained with haematoxylin and eosin (H&E). Semiquantification of histological changes was analyzed by Image-Plus, Pro software.
# Heme content measurement in multiple mouse tissues. Different organs were quickly removed and frozen in liquid nitrogen as described above. Heme was extracted from organs by homogenization with 1% Triton x-100 in PBS with 1× proteinase inhibitors (Roche) and the supernatant was collected following centrifugation at 20,000 g for 10 minutes at 4° C. Heme content was quantified following the instructions of QuantiChrom Heme Assay Kit (BioAssay Systems, Hayword, Calif.).
# SCD Tg mice [6] = experiment: 2,3-DPG in RBCs and saturated Hb in SCD Tg mice after chronic treatment; format: in vivo, mouse; details: steady state, 8 weeks treatment
# Procedure: as §4, §5, §2
# Measurement of percentage of saturated Hb in mice. Percentage of saturated Hb (SpO2) in mice was measured by Oxysat (Kent Scientific Corp, CT). Mice were held in mouse holders (Kent Scientific Corp, CT) and Oxysat sensor was placed on a site approximately 1 cm from the base of the tail. When mouse was calm, the SpO2 was continuously recorded for about 2 minutes. The data were collected and SpO2 was calculated by average of SpO2 in two-minute measurement.
# mouse RBCs = experiment: cAMP levels in isolated mouse RBCs; format: cell-based
# Procedure: Isolation of total erythrocytes and treatment of human and mouse erythrocytes in vitro. Blood collected with heparin as an anti-coagulant was centrifuged at 240×g for 10 min at room temperature, followed by aspiration of plasma and white interface. […] After 18 hours, cells were collected and 2,3-DPG levels were measured as described below. RBCs were purified from SCD patients and treated with or without 10 μM NECA, 5 units/ml polyethylene glycol-adenosine deaminase (PEG-ADA) or 3 mmol/L glycolic acid (Sigma-Aldrich), 10 μM MRS1754 (A2BR antagonist) under ambient oxygen (normoxia) or different levels of hypoxic conditions (for 3 hours with shaking at 37° C. At the end of experiments, 2,3-DPG levels were measured and the percentage of sickled cells determined as described below.
# cAMP measurement. Quantitative assays for cAMP contents in RBCs were performed by using a commercial enzyme immunoassay kit (Assay Designs Inc., Michigan, USA).
compound,measurement,setting,value
c1ccc(Oc2nc(NC3CCCCC3)c3[nH]cnc3n2)cc1 [MRS3777],"NECA-mediated 2,3-DPG induction (effect of antagonist)",normal human RBCs,not
O=S(=O)(NCCNC/C=C/c1ccc(Br)cc1)c1cccc2cnccc12 [H-89],"NECA-mediated 2,3-DPG induction (effect of inhibitor)",normal mouse RBCs; NECA 10 μM,significantly inhibited
same,"hypoxia-mediated induction of 2,3-DPG",RBCs from SCD patients [1],reduced
same,percentage of sickled cells,RBCs from SCD patients [2],significantly reduced
CCCn1c(=O)c2[nH]c(-c3ccc(OCC(=O)Nc4ccc(C#N)cc4)cc3)nc2n(CCC)c1=O [MRS1754],"NECA-mediated 2,3-DPG induction (effect of antagonist)",normal human RBCs,inhibited
same,"hypoxia-mediated induction of 2,3-DPG",RBCs from SCD patients [1],reduced
same,percentage of sickled cells,RBCs from SCD patients [2],significantly reduced
N#Cc1c(N)nc(SCC(N)=O)c(C#N)c1-c1ccc(OCC2CC2)cc1 [BAY 60-6583],"2,3-DPG levels / production (agonist)",normal human RBCs,"induced 2,3-DPG production in a dosage-dependent manner"
"CCCn1c(=O)[nH]c2nc(-c3ccc(S(=O)(=O)O)cc3)[nH]c2c1=O [PSB1115, reference compound]",HCT,SCD Tg mice [3],31.82 ± 3.43 %
same,Hb,SCD Tg mice [3],8.25 ± 0.29 g/dL
same,MCH,SCD Tg mice [3],12.78 ± 0.46 pg
same,MCHC,SCD Tg mice [3],26.02 ± 1.82 g/dL
same,MCV,SCD Tg mice [3],49.17 ± 1.82 fL
same,RDW,SCD Tg mice [3],28.27 ± 1.36 %
same,Reticulocyte,SCD Tg mice [3],37.15 ± 3.27 %
same,Sickle cell,SCD Tg mice [3],9.07 ± 0.75 %
same,WBC,SCD Tg mice [3],11.95 ± 3.27 k/μl
same,RBC,SCD Tg mice [3]; mean ± SEM,6.45 ± 0.45 M/μl
same,fold increase of half-life of RBCs,SCD Tg mice [4]; chronic treatment vs untreated,2.75 fold
same,half-life of RBCs,"SCD Tg mice [4]; chronic treatment, untreated 2 days",132 h
same,"congestion, vascular damage and necrosis in multiple tissues (histology)",SCD Tg mice [5],reduced
same,"2,3-DPG levels in the RBCs",SCD Tg mice [6],decreases
"CCNC(=O)[C@H]1O[C@@H](n2cnc3c(N)ncnc32)[C@H](O)[C@@H]1O [NECA, 5′-N-ethylcarboxamidoadenosine]","NECA-mediated 2,3-DPG induction",normal mouse RBCs; RBCs from A2BR-deficient mice,did not occur
same,"2,3-DPG levels","normal mouse RBCs; primary normal mouse mature erythrocytes, NECA 10 μM, 18 hours",stimulated an increase
same,cAMP production,mouse RBCs; RBCs from A2BR-deficient mice,not
same,cAMP production,mouse RBCs; RBCs from WT mice,capable of inducing cAMP production
same,"2,3-DPG levels / production (agonist)",normal human RBCs,"stimulated 2,3-DPG levels in a dosage and time-dependent manner"
same,"hypoxia-mediated induction of 2,3-DPG",RBCs from SCD patients [1],significantly stimulated a further increase
same,percentage of sickled cells,RBCs from SCD patients [2],significantly increased
COc1ccc(CCCn2ncc3c2nc(N)n2nc(-c4ccco4)nc32)cc1 [SCH442416],"NECA-mediated 2,3-DPG induction (effect of antagonist)",normal human RBCs,not
"O=C(O)CO [glycolate, glycolic acid]","hypoxia-mediated induction of 2,3-DPG",RBCs from SCD patients [1],reduced
same,percentage of sickled cells,RBCs from SCD patients [2],significantly reduced
Cn1c(=O)c2[nH]cnc2n(C)c1=O [theophylline],"NECA-mediated 2,3-DPG induction (effect of inhibitor)",normal mouse RBCs; NECA 10 μM,prevented
same,"NECA-mediated 2,3-DPG induction (effect of antagonist)",normal human RBCs,inhibited
CCNC(=O)[C@H]1O[C@@H](n2cnc3c(N)nc(NCCc4ccc(CCC(=O)O)cc4)nc32)[C@H](O)[C@@H]1O [CGS21680],"2,3-DPG levels / production (agonist)",normal human RBCs,not
CCCCn1c(=O)c2[nH]c(C34CC5CC(CC3C5)C4)nc2n(CCCO)c1=O [PSB36],"NECA-mediated 2,3-DPG induction (effect of antagonist)",normal human RBCs,not
